We go through eleven compounds from ChEMBL document CHEMBL5291721, “A preclinical secondary pharmacology resource illuminates target-adverse drug reaction associations of marketed drugs” (Nat Commun, 2023).

What is called AC50 is the midpoint of the concentration-response curve, whichever way the signal moves.

Assay [1] concerns the target T1, Adenosine receptor A3 (Homo sapiens, UniProt P0DMS8).
T1 sequence (P0DMS8 whole entry): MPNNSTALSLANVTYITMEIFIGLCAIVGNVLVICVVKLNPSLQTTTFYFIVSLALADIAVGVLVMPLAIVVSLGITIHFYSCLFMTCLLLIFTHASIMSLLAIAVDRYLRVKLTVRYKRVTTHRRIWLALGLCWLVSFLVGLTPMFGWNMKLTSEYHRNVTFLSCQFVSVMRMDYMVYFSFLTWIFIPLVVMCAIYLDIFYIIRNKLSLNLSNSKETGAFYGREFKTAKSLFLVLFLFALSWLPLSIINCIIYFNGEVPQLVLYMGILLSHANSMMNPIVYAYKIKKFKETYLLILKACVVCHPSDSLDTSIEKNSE

Assay [2] deals with T2, Alpha-1A adrenergic receptor (Homo sapiens, UniProt P35348).
T2 sequence (P35348 whole entry): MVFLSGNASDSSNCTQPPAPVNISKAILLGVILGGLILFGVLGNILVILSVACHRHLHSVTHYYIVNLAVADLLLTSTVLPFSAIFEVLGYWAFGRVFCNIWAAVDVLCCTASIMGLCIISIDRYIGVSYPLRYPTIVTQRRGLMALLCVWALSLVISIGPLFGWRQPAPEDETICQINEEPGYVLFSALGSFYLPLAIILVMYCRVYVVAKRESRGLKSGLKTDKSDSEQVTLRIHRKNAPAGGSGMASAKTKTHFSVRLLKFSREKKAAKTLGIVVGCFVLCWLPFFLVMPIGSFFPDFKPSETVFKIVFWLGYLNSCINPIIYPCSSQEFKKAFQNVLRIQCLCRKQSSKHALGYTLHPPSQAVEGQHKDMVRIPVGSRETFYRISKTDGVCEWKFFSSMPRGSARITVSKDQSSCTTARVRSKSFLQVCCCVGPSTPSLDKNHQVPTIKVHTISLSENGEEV
It is filed as functional, cell-based.

Assay [3] deals with T3, Alpha-2A adrenergic receptor (Homo sapiens, UniProt P08913).
T3 sequence (P08913 whole entry): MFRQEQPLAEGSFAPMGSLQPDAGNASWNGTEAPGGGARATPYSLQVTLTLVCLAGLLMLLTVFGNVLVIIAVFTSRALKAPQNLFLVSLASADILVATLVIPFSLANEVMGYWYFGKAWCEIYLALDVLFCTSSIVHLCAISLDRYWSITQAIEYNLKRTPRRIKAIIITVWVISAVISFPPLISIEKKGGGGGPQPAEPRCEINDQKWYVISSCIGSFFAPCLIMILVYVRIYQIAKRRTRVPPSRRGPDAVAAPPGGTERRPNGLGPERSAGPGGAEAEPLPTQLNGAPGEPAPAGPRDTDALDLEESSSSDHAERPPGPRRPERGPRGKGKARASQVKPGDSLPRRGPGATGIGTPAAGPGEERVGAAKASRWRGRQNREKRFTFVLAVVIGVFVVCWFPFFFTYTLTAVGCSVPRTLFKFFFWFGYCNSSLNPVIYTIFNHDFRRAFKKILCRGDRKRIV
It is filed as functional, cell-based.

The target in assay [4] is T3, Alpha-2A adrenergic receptor. Type of assay: functional, cell-based. The source holds these as a separate data set.
The target of assay [5] is Vasopressin V2 receptor (Homo sapiens, UniProt P30518).
The target in assay [6] is T4, Cholecystokinin receptor type A (Homo sapiens, UniProt P32238).
T4 sequence (P32238 whole entry): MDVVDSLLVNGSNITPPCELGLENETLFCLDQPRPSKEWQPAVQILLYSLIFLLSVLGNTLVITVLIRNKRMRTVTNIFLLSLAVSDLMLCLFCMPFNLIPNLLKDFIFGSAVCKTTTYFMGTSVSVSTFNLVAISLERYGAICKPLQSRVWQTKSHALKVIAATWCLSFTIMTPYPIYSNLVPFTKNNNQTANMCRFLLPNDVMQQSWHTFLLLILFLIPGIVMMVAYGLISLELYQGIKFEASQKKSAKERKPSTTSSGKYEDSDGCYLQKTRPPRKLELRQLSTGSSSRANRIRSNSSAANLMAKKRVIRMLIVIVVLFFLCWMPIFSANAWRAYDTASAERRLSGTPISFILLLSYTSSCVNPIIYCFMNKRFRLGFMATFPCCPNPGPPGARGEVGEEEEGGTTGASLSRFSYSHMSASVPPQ

The target in assay [7] is T5, Gastrin/cholecystokinin type B receptor (Homo sapiens, UniProt P32239).
T5 sequence (P32239 whole entry): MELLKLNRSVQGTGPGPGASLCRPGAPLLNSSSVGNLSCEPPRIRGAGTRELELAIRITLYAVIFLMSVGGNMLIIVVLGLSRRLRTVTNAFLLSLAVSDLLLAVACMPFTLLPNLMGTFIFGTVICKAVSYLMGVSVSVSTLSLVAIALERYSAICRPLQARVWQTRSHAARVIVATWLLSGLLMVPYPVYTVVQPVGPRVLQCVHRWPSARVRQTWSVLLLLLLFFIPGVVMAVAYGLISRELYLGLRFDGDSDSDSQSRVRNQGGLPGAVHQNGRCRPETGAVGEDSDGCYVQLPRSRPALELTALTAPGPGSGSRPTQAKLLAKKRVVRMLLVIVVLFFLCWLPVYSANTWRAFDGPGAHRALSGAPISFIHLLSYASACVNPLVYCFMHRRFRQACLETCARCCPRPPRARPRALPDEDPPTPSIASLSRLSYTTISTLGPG

Assay [8] deals with Cannabinoid receptor 1 (Homo sapiens, UniProt P21554). Type of assay: functional, cell-based.
In assay [9] the target is Growth hormone secretagogue receptor type 1 (Homo sapiens, UniProt Q92847).
For assay [10], the target named is Glutamate receptor ionotropic, NMDA 1 (Rattus norvegicus, UniProt P35439).
Assay [11] deals with Mu-type opioid receptor (Homo sapiens, UniProt P35372). The assay is described as follows: biochemical. Type of assay: functional.
The target of assay [12] is T2, Alpha-1A adrenergic receptor. It is filed as functional, cell-based. This is another data set of the same source.
Note: assay procedure not described here.

Chain of Mu-type opioid receptor (P35372 whole entry): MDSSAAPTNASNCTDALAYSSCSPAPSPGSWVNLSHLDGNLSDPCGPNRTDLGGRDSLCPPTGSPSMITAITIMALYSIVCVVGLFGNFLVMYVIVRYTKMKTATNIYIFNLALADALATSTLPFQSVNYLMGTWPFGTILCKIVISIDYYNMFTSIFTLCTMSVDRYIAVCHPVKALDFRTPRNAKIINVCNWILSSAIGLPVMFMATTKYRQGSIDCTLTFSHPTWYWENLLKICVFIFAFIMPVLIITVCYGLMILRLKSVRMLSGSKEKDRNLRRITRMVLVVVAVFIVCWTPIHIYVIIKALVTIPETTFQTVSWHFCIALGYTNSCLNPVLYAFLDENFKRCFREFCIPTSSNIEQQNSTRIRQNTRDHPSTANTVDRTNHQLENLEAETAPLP
Chain of Growth hormone secretagogue receptor type 1 (Q92847 whole entry): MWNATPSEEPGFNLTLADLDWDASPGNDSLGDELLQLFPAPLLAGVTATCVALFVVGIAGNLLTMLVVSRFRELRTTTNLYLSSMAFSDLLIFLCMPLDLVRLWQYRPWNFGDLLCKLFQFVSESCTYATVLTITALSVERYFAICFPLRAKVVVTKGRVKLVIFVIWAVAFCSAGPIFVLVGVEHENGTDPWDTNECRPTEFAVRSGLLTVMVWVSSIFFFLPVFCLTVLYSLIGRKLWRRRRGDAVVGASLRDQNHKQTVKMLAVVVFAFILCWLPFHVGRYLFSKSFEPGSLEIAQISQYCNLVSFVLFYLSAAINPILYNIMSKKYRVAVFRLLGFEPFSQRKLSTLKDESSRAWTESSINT
Chain of Cannabinoid receptor 1 (P21554 whole entry): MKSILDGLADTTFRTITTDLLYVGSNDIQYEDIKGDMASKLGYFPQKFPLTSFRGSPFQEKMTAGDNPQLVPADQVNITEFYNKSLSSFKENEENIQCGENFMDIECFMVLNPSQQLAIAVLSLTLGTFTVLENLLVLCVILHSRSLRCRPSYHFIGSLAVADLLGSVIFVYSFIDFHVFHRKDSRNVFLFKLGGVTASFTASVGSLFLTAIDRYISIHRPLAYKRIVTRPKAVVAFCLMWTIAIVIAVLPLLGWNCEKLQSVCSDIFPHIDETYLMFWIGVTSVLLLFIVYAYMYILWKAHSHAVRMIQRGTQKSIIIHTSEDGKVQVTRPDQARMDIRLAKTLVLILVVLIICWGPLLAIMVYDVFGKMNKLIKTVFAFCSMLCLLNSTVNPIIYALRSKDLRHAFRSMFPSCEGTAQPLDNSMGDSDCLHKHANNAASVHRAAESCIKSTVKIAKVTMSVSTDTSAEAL
Chain of Vasopressin V2 receptor (P30518 whole entry): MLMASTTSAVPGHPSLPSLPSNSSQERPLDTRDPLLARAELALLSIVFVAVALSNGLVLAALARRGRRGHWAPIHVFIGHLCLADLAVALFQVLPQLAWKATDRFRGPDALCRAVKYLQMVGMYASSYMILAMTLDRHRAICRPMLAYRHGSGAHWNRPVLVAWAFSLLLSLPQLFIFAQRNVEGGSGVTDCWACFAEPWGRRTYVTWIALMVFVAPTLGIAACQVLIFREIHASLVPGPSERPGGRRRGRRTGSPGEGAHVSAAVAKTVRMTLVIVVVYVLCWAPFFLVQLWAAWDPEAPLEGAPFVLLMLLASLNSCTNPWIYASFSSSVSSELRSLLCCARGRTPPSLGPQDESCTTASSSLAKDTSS

`CCCN(CC)C(CC)C(=O)Nc1c(C)cccc1C` (configuration not stated) [ETIDOCAINE]: the AC50 in [1], in assay [2], in [3], in assay [4], in assay [5] and in [6] was > 30 µM throughout. Further, the half-maximal activity concentration (AC50) in assay [7], in [8], in [9], in assay [10], in assay [11] and in assay [12] was > 30 µM throughout.
On to `Clc1ccc(C(Cn2ccnc2)OCc2ccc(Sc3ccccc3)cc2)c(Cl)c1` (configuration not stated) [FENTICONAZOLE], for which the concentration at half-maximal activity (AC50) in [1] was 6.4 µM; in assay [2], > 30 µM; in [3] it was > 30 µM; in [4] it was > 30 µM; in assay [5], > 30 µM; in [6], > 30 µM. For the same compound, the AC50 is > 30 µM in assay [7]; 1.3 µM in assay [8]; > 30 µM in [9]; > 30 µM in [10]; > 30 µM in assay [11]; > 30 µM in [12].
Turning to `O=C(O)c1ccccc1Nc1cccc(C(F)(F)F)c1` [FLUFENAMIC ACID], the AC50 is 26.3 µM in assay [1]; > 30 µM in assay [2]; > 30 µM in assay [3]; > 30 µM in assay [4]; > 30 µM in assay [5]; > 30 µM in assay [6]. Also, the AC50 in assay [7] was > 30 µM; in assay [8], > 30 µM; in assay [9] it was > 30 µM; in assay [10], > 10 µM; in [11], > 30 µM; in assay [12] it was > 30 µM.
Turning to `C#C[C@]1(O)CC[C@H]2[C@@H]3CCC4=CC(=O)CCC4=C3C=C[C@@]21CC` [GESTRINONE], the half-maximal activity concentration (AC50) is 22 µM in assay [1]; > 30 µM in assay [2]; > 30 µM in [3]; 11 µM in assay [4]; > 30 µM in assay [5]; > 30 µM in assay [6]. Besides, the concentration at half-maximal activity (AC50) in [7], in assay [8], in assay [9], in assay [10], in [11] and in assay [12] was > 30 µM in each case.
In the case of `CCCCCCOC(=O)CCC(=O)CN` [HEXAMINOLEVULINATE], the AC50 in assay [1], in assay [2], in assay [3], in assay [4], in [5] and in [6] was > 30 µM in each case. The AC50 in [7], in assay [8], in assay [9], in [10], in assay [11] and in assay [12] was > 30 µM throughout.
As for `Nc1nc2c(c(=O)[nH]1)N(C=O)C(CNc1ccc(C(=O)N[C@@H](CCC(=O)O)C(=O)O)cc1)CN2` (some centres not stated) [LEUCOVORIN], the AC50 in [1], in [2], in [3], in assay [4], in [5] and in [6] was > 30 µM in each case. Moreover, the concentration at half-maximal activity (AC50) in [7], in assay [8], in assay [9], in assay [10], in assay [11] and in assay [12] was > 30 µM throughout.
Consider `CCCC[C@H](C)C[C@H](O)/C=C/[C@H]1[C@H](O)CC(=O)[C@@H]1CCCC/C=C/C(=O)O` [LIMAPROST], for which the AC50 in [1], in [2], in assay [3], in assay [4], in assay [5] and in assay [6] was > 30 µM in each case. In addition, the half-maximal activity concentration (AC50) in assay [7], in [8], in assay [9], in assay [10], in assay [11] and in [12] was > 30 µM each time.
Turning to `Cc1ccc(NC(=O)C2(c3ccc4c(c3)OC(F)(F)O4)CC2)nc1-c1cccc(C(=O)O)c1` [LUMACAFTOR], the half-maximal activity concentration (AC50) in assay [1] was 15 µM; in [2], > 30 µM; in assay [3], > 30 µM; in assay [4], > 30 µM; in [5], > 30 µM; in assay [6] it was > 30 µM. Further, the AC50 is > 10 µM in assay [7]; > 30 µM in assay [8]; > 30 µM in [9]; > 30 µM in assay [10]; > 30 µM in assay [11]; 25 µM in assay [12].
With `CC(C)OC(=O)C(C(=O)OC(C)C)=C1SC=CS1` [MALOTILATE], the concentration at half-maximal activity (AC50) in assay [1], in assay [2], in assay [3], in assay [4], in [5] and in [6] was > 30 µM throughout. For the same compound, the concentration at half-maximal activity (AC50) in [7] is > 30 µM; in [8] it was > 30 µM; in assay [9], > 30 µM; in [10], > 30 µM; in assay [11], > 30 µM; in assay [12] it was 28 µM.
Consider `CN(c1nccc(=O)[nH]1)C1CCN(c2nc3ccccc3n2Cc2ccc(F)cc2)CC1` [MIZOLASTINE], for which the AC50 in assay [1] was > 30 µM; in assay [2], > 30 µM; in assay [3], > 30 µM; in [4], 23 µM; in assay [5], > 30 µM; in [6], > 30 µM. The half-maximal activity concentration (AC50) in assay [7], in [8], in [9], in assay [10], in assay [11] and in assay [12] was > 30 µM throughout.
As for `Cc1ccc(=O)n(-c2ccccc2)c1` [PIRFENIDONE], the AC50 in [1], in [2], in assay [3], in assay [4], in assay [5] and in assay [6] was > 30 µM each time. The AC50 in assay [7], in [8], in [9], in assay [10], in assay [11] and in assay [12] was > 30 µM each time.
